Broadly, the EC50 is the concentration giving half of the maximal effect. Higher therefore signals weaker potency.

For the assay, the target named is human mGluR2 (Homo sapiens (Human), UniProt Q14416). Nature of the assay: MGluR2 cAMP assay. As to conditions: HEK293 cells clonally expressing human mGluR2, 1 μM forskolin, 1 μM LY-341495. It counts as cell-based. As for the experimental part: Clonally expressed human mGluR2 in HEK293 background was glutamate starved overnight in media without glutamine (GIBCO MEM 12360), containing 10% FBS, 1% penicillin streptomycin.
Sequence of human mGluR2 (Q14416 19-872): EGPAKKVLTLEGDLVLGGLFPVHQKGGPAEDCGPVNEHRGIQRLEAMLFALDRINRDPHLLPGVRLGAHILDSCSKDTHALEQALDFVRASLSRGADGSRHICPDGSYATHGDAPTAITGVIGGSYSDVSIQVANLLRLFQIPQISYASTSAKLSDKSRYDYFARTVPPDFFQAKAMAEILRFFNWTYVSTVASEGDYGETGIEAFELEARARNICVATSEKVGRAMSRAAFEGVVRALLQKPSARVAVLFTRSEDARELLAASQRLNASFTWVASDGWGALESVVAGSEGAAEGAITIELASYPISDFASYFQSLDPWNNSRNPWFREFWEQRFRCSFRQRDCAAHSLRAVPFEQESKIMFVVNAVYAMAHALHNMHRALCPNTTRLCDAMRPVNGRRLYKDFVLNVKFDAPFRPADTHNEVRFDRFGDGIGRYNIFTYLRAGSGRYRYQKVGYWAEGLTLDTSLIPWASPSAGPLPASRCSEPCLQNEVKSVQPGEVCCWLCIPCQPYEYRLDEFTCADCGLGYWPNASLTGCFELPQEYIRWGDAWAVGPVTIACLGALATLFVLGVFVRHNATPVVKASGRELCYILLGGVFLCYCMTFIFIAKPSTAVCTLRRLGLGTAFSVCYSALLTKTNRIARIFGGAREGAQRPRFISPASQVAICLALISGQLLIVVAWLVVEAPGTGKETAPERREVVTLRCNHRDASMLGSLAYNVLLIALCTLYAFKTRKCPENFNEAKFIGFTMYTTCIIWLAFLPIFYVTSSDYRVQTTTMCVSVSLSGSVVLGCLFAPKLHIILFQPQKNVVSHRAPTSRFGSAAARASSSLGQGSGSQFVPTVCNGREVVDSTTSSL
On the day of the assay, media was removed, cells washed with PBS, cells harvested and pelleted by centrifugation. Cell pellets were resuspended in stimulation buffer without forskolin and counted. A solution of 1.25×10^6 cells/ml was prepared and dispensed to plates using a Combi liquid handler (Thermo). A standard curve was created using a top concentration of cAMP of 1 μM in the stimulation buffer, 1:3 dilutions over 14 points in the absence of cells. Plates were read by time-resolved fluorescence at […] and a ratio was calculated via in house software, (665 nM/618 nM)*10^4. In house software converted the fluorescence value ratios to units of cAMP concentration, which is then used to calculate % inhibition for each test compound.
Compounds were added to white, standard volume 384 non-binding surface plates (Corning 3574). Cells were resuspended in stimulation buffer consisting of Hanks Balanced Salt Solution (14175-095) pH 7.0, 20 mM HEPES, 2.0 mM CaCl2, 5.0 mM MgCl2, and 1 mM IBMX (Sigma 15879), 1 μM forskolin, and 1 μM LY-341495, for 30 minutes. Buffer without forskolin was used as a negative control. Solutions of D2 and cryptate detection reagents from the CISBIO dynamic cAMP kit (62AM4PEJ) were diluted 1:40 in lysis buffer. Lysis buffer consisted of 50 mM Phosphate Buffer pH 7.0, 800 mM Potassium Fluoride, 0.2% BSA, and 1.0% Triton. Assay reaction was terminated by addition of detection reagents in lysis buffer. One hour later, plates were read on a PE Viewlux. Data was extracted, and concentration response curves generated by fitting the data to a standard 4 parameter logistic equation from which EC50 values were determined See table 1: A: <10 nM; B: 10-100 nM; C: 100-1000 nM; D: 1000-10000 nM.
For orientation: Changes in cAMP serve as a functional read-out for many G protein-coupled receptors.
On to `Fc1ccc([C@@H]2C[C@H]2CNc2cnn3c(CC4CC4)nnc3c2Cl)cc1` (racemic) [Example 9, Trans-8-chloro-3-(cyclopropylmethyl)-N-((2-(4-fluorophenyl)cyclopropyl)methyl)-[1,2,4]triazolo[4,3-b]pyridazin-7-amine], for which the EC50 turned out to be 76 nM. The figure for `COc1ccccc1[C@@H]1C[C@H]1CNc1cnn2c(CC(F)(F)F)nnc2c1C(F)(F)F` (relative stereo) [Example 85, Trans-N-((2-(2-methoxyphenyl)cyclopropyl)methyl)-3-(2,2,2-trifluoroethyl)-8-(trifluoromethyl)-[1,2,4]triazolo[4,3-b]pyridazin-7-amine] is 10 nM.

For the molecule `Clc1c(N2CCC(c3ccccc3)CC2)ncn2c(CC3CC3)nnc12` [Example 1, 8-Chloro-3-(cyclopropylmethyl)-7-(4-phenylpiperidin-1-yl)-[1,2,4]triazolo[4,3-c]pyrimidine], the midpoint of the response, the EC50, lay at 8 nM.

The molecule `Cc1c(N2CCC(c3ccccc3)CC2)ncn2c(CC3CC3)nnc12` [Example 2, 3-(Cyclopropylmethyl)-8-methyl-7-(4-phenylpiperidin-1-yl)-[1,2,4]triazolo[4,3-c]pyrimidine] returned a half-maximal effective concentration (EC50) of 62 nM. In the case of `COc1c(N2CCC(c3ccccc3)CC2)ncn2c(CC3CC3)nnc12` [Example 3, 3-(Cyclopropylmethyl)-8-methoxy-7-(4-phenylpiperidin-1-yl)-[1,2,4]triazolo[4,3-c]pyrimidine] it was 540 nM. In the case of `FC(F)(F)c1c(N2CCC(c3ccccc3)CC2)ncn2c(CC3CC3)nnc12` [Example 4, 3-(Cyclopropylmethyl)-7-(4-phenylpiperidin-1-yl)-8-(trifluoromethyl)-[1,2,4]triazolo[4,3-c]pyrimidine] it was 69 nM.

With `Clc1c(N2CCC(c3ccccc3)CC2)cnn2c(CC3CC3)nnc12` [Example 5, 8-Chloro-3-(cyclopropylmethyl)-7-(4-phenylpiperidin-1-yl)-[1,2,4]triazolo[4,3-b]pyridazine], the EC50 came to 19 nM. Take `Cc1c(N2CCC(c3ccccc3)CC2)cnn2c(CC3CC3)nnc12` [Example 6, 3-(Cyclopropylmethyl)-8-methyl-7-(4-phenylpiperidin-1-yl)-[1,2,4]triazolo[4,3-b]pyridazine]: the response was half-maximal at 182 nM (EC50).

`FC(F)(F)c1c(N2CCC(c3ccccc3)CC2)cnn2c(CC3CC3)nnc12` [Example 7, 3-(Cyclopropylmethyl)-7-(4-phenylpiperidin-1-yl)-8-(trifluoromethyl)-[1,2,4]triazolo[4,3-b]pyridazine]: the midpoint of the response, the EC50, lay at 3 nM.

On to `Clc1c(N2CCC(Cc3ccccc3)CC2)ncn2c(CC3CC3)nnc12` [Example 8, 7-(4-Benzylpiperidin-1-yl)-8-chloro-3-(cyclopropylmethyl)-[1,2,4]triazolo[4,3-c]pyrimidine], for which the concentration for a half-maximal effect (EC50) was determined as 61 nM.

Take `Fc1ccc([C@@H]2C[C@H]2CNc2cnn3c(CC4CC4)nnc3c2Cl)cc1` [Example 10, 8-Chloro-3-(cyclopropylmethyl)-N-(((1R,2R)-2-(4-fluorophenyl)cyclopropyl)methyl)-[1,2,4]triazolo[4,3-b]pyridazin-7-amine]: it took 158 nM to reach a half-maximal effect (EC50). In the case of `Fc1ccc([C@H]2C[C@@H]2CNc2cnn3c(CC4CC4)nnc3c2Cl)cc1` [Example 11, 8-Chloro-3-(cyclopropylmethyl)-N-(((1S,2S)-2-(4-fluorophenyl)cyclopropyl)methyl)-[1,2,4]triazolo[4,3-b]pyridazin-7-amine] it was 60 nM; in that of `COc1c(N2CCC(c3ccc(F)cc3)CC2)ncn2c(CC3CC3)nnc12` [Example 12, 3-(Cyclopropylmethyl)-7-(4-(4-fluorophenyl)piperidin-1-yl)-8-methoxy-[1,2,4]triazolo[4,3-c]pyrimidine], 519 nM; in that of `COc1c(N2CCC(c3ccc(F)cc3)CC2)ncn2c(CC(C)(C)C)nnc12` [Example 13, 7-(4-(4-Fluorophenyl)piperidin-1-yl)-8-methoxy-3-neopentyl-[1,2,4]triazolo[4,3-c]pyrimidine], 286 nM.

Source of the values: patent US9682980B2, “Positive allosteric modulators of mGluR2” (BRISTOL-MYERS SQUIBB COMPANY, priority 2012, dated 2017).
